# Columns and labels:
# ULBP3 = assay: Surface expression of NK cell activating ligands by flow cytometry; type: cell-based, human; conditions: RPMI-8226, 48 hours, DMSO = 100
# Description: (§1) For surface staining, cells were incubated with the appropriate antibodies and 7AAD (Immunostep) for 15 min in the dark. Data were acquired using a FACSCalibur cytometer (BD Biosciences) and analyzed using Infinicyt™ software (Cytognos). Specifically, the expression of CD38 or ligands for NK cell activating receptors (MICA, MICB, ULBP1-3, PVR and CD112) in MM cell lines was determined on the viable cell population (7AAD-). In primary myeloma cells, the expression of CD38 was analyzed over the viable myeloma population using the panel CD138-FITC/CD56-PE/7AAD/CD38-APC, whereas MICA/B-AF488/CD56-PE/7AAD/CD38-APC panel was used to determine MICA/B expression. Normalized median fluorescence intensity (MFI) was calculated by dividing median fluorescence obtained with the specific antibody by median fluorescence of the corresponding isotype control. MFI for each treatment was expressed as a percentage relative to the control (100%, cells cultured in media with DMSO).
# (§2) MM cells (JJN3, MM1.S, RPMI-8226, MOLP-8) were treated with EDO-S101 (1 and 2.5 μm) for 48 hours in accordance with the methods outlined above. After incubation, expression of several ligands for NK cell activating receptors: MICA, MICB, ULBP1, ULPB2, ULPB3, CD155 (PVR) and CD112 (Nectin-2) were measured using flow cytometry. Flow cytometry was then performed in accordance with the methods outlined above to calculate.
# CD155 = assay: as above; type: cell-based, human; conditions: 48 hours, DMSO = 100
# Description: as §1, §2
# ULBP2 = assay: as above; type: cell-based, human; conditions: 48 hours, DMSO = 100
# Description: as §1, §2
# CD112 = assay: as above; type: cell-based, human; conditions: RPMI-8226, 48 hours, DMSO = 100
# Description: as §1, §2
# ULBP1 = assay: as above; type: cell-based, human; conditions: MM cell lines tested; not basally expressed; data not shown
# Description: as §1, §2
# MICA = assay: as above; type: cell-based, human; conditions: 48 hours, DMSO = 100
# Description: as §1, §2
# MICB = assay: as above; type: cell-based, human; conditions: 48 hours, DMSO = 100
# Description: as §1, §2
# CD38 = CD38 expression by western blot in MM cell lines; type: cell-based, human
# Description: Western Blot Analysis Cells were collected and centrifuged at 1200 rpm for 5 minutes at 4° C. Cells were washed with PBS and lysed in ice-cold lysis buffer [140 mmol/L NaCl, 10 mmol/L EDTA, 10% glycerol, 1% NP40, 20 mmol/L Tris (pH 7), 1 μMol/L pepstatin, 1 μg/mL aprotinin, 1 μg/mL leupeptin, 1 mmol/L sodium orthovanadate]. Samples were centrifuged at 10,000×g at 4° C. for 10 minutes, and supernatants were transferred to new tubes and western blots were performed following standard procedures. CD38 and anti-α-tubulin primary antibodies used in Western blot analyses were obtained from Cell Signaling (Boston, MA, USA). The horseradish peroxidase-conjugated secondary antibodies were from GE Healthcare (Chicago, IL, USA).
# MOLP-8 cells = assay: Daratumumab-mediated complement-dependent cytotoxicity (CDC) on pre-treated MM cells; type: cell-based; conditions: MOLP-8 pre-treated 2.5 μM 48 hours; daratumumab 0.1 or 1 μg/mL, 10% human serum, 4 hours
# Description: ADCC, CDC and apoptosis via cross-linking To assess the effect of tinostamustine pre-treatment on cytotoxic mechanisms mediated by daratumumab, MM cell lines were first incubated in presence of tinostamustine (2.5 μM) or DMSO for 48 hours. Cells were then washed to remove tinostamustine or DMSO from the culture medium, and the corresponding cytotoxic assay (ADCC, CDC or apoptosis via cross-linking) was performed.
# For the evaluation of ADCC, tinostamustine or DMSO pre-treated cells were cocultured with NK cells obtained from healthy donors in the presence of daratumumab (1 μg/ml) or the corresponding isotype control for 4 hours (ratio 1:1). Briefly, peripheral blood mononuclear cells (PBMCs) were isolated from healthy donor buffy coats by Lymphoprep density gradient centrifugation. […] In all three assays, the cytotoxic effect on MM cells was evaluated by flow cytometry with Annexin V/7AAD staining after treatment with daratumumab. […]
# MM cells (MOLP-8 pre-treated with 0 or 2.5 μM EDO-S101 for 48 hours in accordance with the methods outlined above) were incubated with 0.1 μg/mL daratumumab, 1 μg/ml daratumumab, or the corresponding isotype control, for 30 minutes at 37° C. […] The percentage of dead cells was then evaluated by flow cytometry in accordance with the methods outlined above, using AnnexinV/7AAD staining.
smiles,measurement,setting,value
"Cn1c(CCCCCCC(=O)NO)nc2cc(N(CCCl)CCCl)ccc21 [EDO-S101, 7-(5-(bis(2-chloroethyl)amino)-1-methyl-1H-benzo[d]imidazol-2-yl)-N-hydroxyheptanamide]",Normalized MFI ULBP3,ULBP3; EDO-S101 1 μM,111.7 ± 14.8%
same,Normalized MFI ULBP3,ULBP3; EDO-S101 2.5 μM,129.6 ± 20.2%
same,Normalized MFI CD155,"CD155; JJN3, EDO-S101 1 μM",161.4 ± 14.3%
same,Normalized MFI CD155,"CD155; JJN3, EDO-S101 2.5 μM",156.8 ± 24.7%
same,Normalized MFI CD155,"CD155; MM1.S, EDO-S101 1 μM",113.3 ± 3.9%
same,Normalized MFI CD155,"CD155; MM1.S, EDO-S101 2.5 μM",111.5 ± 15.3%
same,Normalized MFI CD155,"CD155; RPMI-8226, EDO-S101 1 μM",123.9 ± 6.1%
same,Normalized MFI CD155,"CD155; RPMI-8226, EDO-S101 2.5 μM",168.2 ± 24.8%
same,Normalized MFI ULBP2,"ULBP2; JJN3, EDO-S101 1 μM",110.5 ± 9.5%
same,Normalized MFI ULBP2,"ULBP2; JJN3, EDO-S101 2.5 μM",112.9 ± 13.4%
same,Normalized MFI ULBP2,"ULBP2; MM1.S, EDO-S101 1 μM",95.8 ± 4.5%
same,Normalized MFI ULBP2,"ULBP2; MM1.S, EDO-S101 2.5 μM",96.3 ± 12.3%
same,Normalized MFI ULBP2,"ULBP2; MOLP-8, EDO-S101 1 μM",116.1 ± 4.6%
same,Normalized MFI ULBP2,"ULBP2; MOLP-8, EDO-S101 2.5 μM",124.7 ± 13.5%
same,Normalized MFI CD112,CD112; EDO-S101 1 μM,116.6 ± 13.2%
same,Normalized MFI CD112,CD112; EDO-S101 2.5 μM,142.8 ± 11.5%
same,ULBP1 expression,ULBP1,did not change
same,Normalized MFI MICA,"MICA; JJN3, EDO-S101 1 μM",162.9 ± 11.8%
same,Normalized MFI MICA,"MICA; JJN3, EDO-S101 2.5 μM",168.8 ± 10.3%
same,Normalized MFI MICA,"MICA; MM1.S, EDO-S101 1 μM",131.9 ± 37.6%
same,Normalized MFI MICA,"MICA; MM1.S, EDO-S101 2.5 μM",128 ± 38.2%
same,Normalized MFI MICA,"MICA; MOLP-8, EDO-S101 1 μM",112.9 ± 5.7%
same,Normalized MFI MICA,"MICA; MOLP-8, EDO-S101 2.5 μM",131.7 ± 13.4%
same,Normalized MFI MICA,"MICA; RPMI-8226, EDO-S101 1 μM",121.3 ± 5.9%
same,Normalized MFI MICA,"MICA; RPMI-8226, EDO-S101 2.5 μM",153.6 ± 16.1%
same,Normalized MFI MICB,"MICB; JJN3, EDO-S101 1 μM",137.6 ± 14%
same,Normalized MFI MICB,"MICB; JJN3, EDO-S101 2.5 μM",144.9 ± 28%
same,Normalized MFI MICB,"MICB; MM1.S, EDO-S101 1 μM",113.8 ± 7.6%
same,Normalized MFI MICB,"MICB; MM1.S, EDO-S101 2.5 μM",113.4 ± 3.3%
same,Normalized MFI MICB,"MICB; MOLP-8, EDO-S101 1 μM",107.8 ± 0.5%
same,Normalized MFI MICB,"MICB; MOLP-8, EDO-S101 2.5 μM",119.3 ± 7.7%
same,Normalized MFI MICB,"MICB; RPMI-8226, EDO-S101 1 μM",107.1 ± 6.6%
same,Normalized MFI MICB,"MICB; RPMI-8226, EDO-S101 2.5 μM",131.3 ± 9.4%
same,"CD38 expression, western blot","CD38; MM1.S, JJN3, RPMI-8226, 1 and 2.5 μM",increased
same,increase in CD38 by Western blot and RT-qPCR,CD38; MOLP-8 cells,not observed
same,daratumumab mediated CDC,MOLP-8 cells,enhanced

# Source: patent publication US20240252472A1, “COMBINATIONS FOR TREATING CANCER” (Purdue Pharma L.P., priority 2023, published 2024)
